# Patent publication US20130281544A1, “HEPATOPROTECTANT ACTIVITY OF GARCINOL” (priority 2010, published 2013)
# Key:
# mice = settings: mouse, in vivo, po
# From the text: The parameters studied and observations recorded are included in Table 1. (OECD Guidelines for Testing of Chemicals. Guideline 423, Acute Oral Toxicity—Acute Toxic Class Method, Adopted, (1996). Organization for Economic Cooperation and Development).
# [1] = system: carbon tetrachloride induced liver damage in rats; assay: Bilirubin and serum enzymes ALT, AST, ALP in carbon tetrachloride induced liver damage; type: in vivo, Male Wistar Rats; settings: CCl4; for ALP percent change / ALT percent change / AST percent change / Bilirubin percent change / ALP / ALT / AST / Bilirubin: serum; for ALP / ALT / AST / Bilirubin: Mean ± SE
# Procedure: Doses of Garcinol (GC) used for the study: 1.25, 2.5, 5, 10 mg/kg p.o.
# Standard drug: Silymarin (50 mg/kg) p.o.
# Liver injury was induced by administration of carbon tetrachloride (CCl4) mixed with liquid paraffin (5 fold dilution). Animals were given single dose of CCl4 at 1 ml/kg, p.o. followed by the administration of garcinol (Table 2). [(i) Bramanti G, Murmann W, Pierini P and Comporti M (1978). Effect of cicloxilic acid on CCl4-induced liver injury. Drug Research 28: 1112-1217. (ii) B Singh, A K Saxena, B K Chandan, K K Anand (1998). Hepatoprotective activity of Verbenalin on experimental liver damage in rodents. Fitoterapia LXIX 2: 135-140. (iii) B. K. Chandan, A. K. Sharma, K. K. Anand Boerhaavia difiusa: A study of its hepatoprotective activity. Journal of Ethnopharmacology, Volume 31, Issue 3, March 1991, Pages 299-307].
# Blood was collected from the retro-orbital plexus of experimental animals and no anti-coagulant was added. Blood was made to stand at room temperature for 1 hour. It was then centrifuged and clear serum was separated. The serum was then stored for analysis. Reference: (Magari et al., 2004).
# (ASPARTATE AMINOTRANSFERASE and ALANINE AMINOTRANSFERASE), Reference: Ritman S, Frankel S, (1957). A colorimeteric method for the determination of serum glutamic oxaloacetic and glutamic pyruvic transaminases. American Journal of Clinical Pathology; 28: 56-63.
# 0.2 ml of serum, collected from test and control samples, was mixed with 1.0 ml of buffer solution and incubated for 60 min at 37° C. in a water bath. After the addition of 1.0 ml of chromogen solution, the samples were kept at room temperature for 20 minutes for the reaction to proceed and 10 ml NaOH was added. The optical density was red at 546 nm after 5 min. To the blank, serum was added after the addition of chromogen solution.
# (ALKALINE PHOSPHATASE), Reference: Klaus Walter and Schutt C. (1974). Acid and alkaline phosphatase in serum. In: Methods of Enzymatic Analysis. Eds. Hans Ulrich Bergmeyer, Verlag ChemieWeinheim, Academic press, Inc. New York, 2nd Edition, Vol. 2, pp. 855-64.
# Alkaline phosphatase activity measurement is based on the ability of the enzyme to hydrolyze p-nitrophenol phosphate under alkaline conditions. The cleaved product p-nitrophenol is yellow in alkaline solution and is measured at 400-420 nm (Klaus and Schutt, 1974). 2.0 ml of buffered substrate was taken in the tubes ‘Test’ ‘Control’ and ‘Blank’ followed by addition of serum and distilled water (0.1 ml) in ‘Test’ and ‘Blank’ respectively and incubated in a water bath for 30 minutes at 25° C. After incubation sodium hydroxide was added (0.25 N, 2 ml) to all the tubes, which was followed by serum (0.1 ml) to the tubes marked ‘Control’. The yellow colour formed was measured spectrophotometrically against blank at 410 nm.
# [BILIRUBIN (BRBN)], Reference: Malloy H T and Evelyn K A (1937). The determination of bilirubin with photoelectric colorimeter. Journal of Biological Chemistry 119: 481-490.
# Serum bilirubin was estimated by the method of Malloy and Evelyn (1937). In the two sets of test tubes marked ‘Test’ and ‘Control’, serum (0.2 ml) and distilled water (1.8 ml) were added. To the tubes marked ‘Test’ and ‘Standard’ diazo reagent (0.5 ml) was added. To the test tubes marked ‘Control’ and ‘Blank’ diazo blank (0.5 ml) was added. Finally methanol (2.5 ml) was added into each test tube. The tubes were mixed and allowed to stand for 30 minutes in dark. The tubes were read after 10 minutes at 540 nm.
compound,measurement,setting,value
C=C(C)[C@@H](CC=C(C)C)C[C@@]12C[C@@H](CC=C(C)C)C(C)(C)[C@@](CC=C(C)C)(C(=O)C(C(=O)c3ccc(O)c(O)c3)=C1O)C2=O [Garcinol],Aggressiveness,mice,Aggressiveness: Nil
same,Atexia,mice,Atexia: Nil
same,Blanching,mice,Blanching: Nil
same,Clonic convulsions,mice,Clonic convulsions: Nil
same,Corneal,mice,Corneal: No Effect
same,Cyanosis,mice,Cyanosis: Nil
same,Diarrhea,mice,Diarrhea: Nil
same,Excitation,mice,Excitation: Nil
same,Fearful,mice,Fearful: Nil
same,Fecal Output,mice,Fecal Output: Normal
same,General Locomotor Activity,mice,General Locomotor Activity: Normal
same,General Movement,mice,General Movement: Normal
same,Hyperemia,mice,Hyperemia: Nil
same,Motor Activity,mice,Motor Activity: Normal
same,Muscular Weakness,mice,Muscular Weakness: Nil
same,Passive,mice,Passive: Nil
same,Pilo erection,mice,Pilo erection: Nil
same,Pinnal,mice,Pinnal: No Effect
same,Respiration Depth,mice,Respiration Depth: Normal
same,Respiration Rate,mice,Respiration Rate: Normal
same,Respiration rate,mice,Respiration rate: Normal
same,Salivation,mice,Salivation: Normal
same,Tremors,mice,Tremors: Nil
same,Urine Output,mice,Urine Output: Normal
same,Average Protection,[1]; 1.25 mg/kg p.o.,12.63%
same,Average Protection,[1]; 2.50 mg/kg p.o.,24.99%
same,Average Protection,[1]; 5.00 mg/kg p.o.,38.07%
same,Average Protection,[1]; 10.00 mg/kg p.o.,36.87%
same,ALP percent change,[1]; 1.25 mg/kg p.o.,(10.79) %
same,ALT percent change,[1]; 1.25 mg/kg p.o.,(12.84) %
same,AST percent change,[1]; 1.25 mg/kg p.o.,(14.95) %
same,Bilirubin percent change,[1]; 1.25 mg/kg p.o.,(11.96) %
same,ALP,[1]; 1.25 mg/kg p.o.,78.49 ± 6.58 μmol/min/lt
same,ALT,[1]; 1.25 mg/kg p.o.,1272.50 ± 109.19 μmol/min/lt
same,AST,[1]; 1.25 mg/kg p.o.,746.81 ± 36.93 μmol/min/lt
same,Bilirubin,[1]; 1.25 mg/kg p.o.,1.03 ± 0.04 mg %
same,ALP percent change,[1]; 2.50 mg/kg p.o.,(20.08) %
same,ALT percent change,[1]; 2.50 mg/kg p.o.,(29.65) %
same,AST percent change,[1]; 2.50 mg/kg p.o.,(26.32) %
same,Bilirubin percent change,[1]; 2.50 mg/kg p.o.,(23.93) %
same,ALP,[1]; 2.50 mg/kg p.o.,70.32 ± 3.89 μmol/min/lt
same,ALT,[1]; 2.50 mg/kg p.o.,1027.07 ± 68.26 μmol/min/lt
same,AST,[1]; 2.50 mg/kg p.o.,646.90 ± 50.53 μmol/min/lt
same,Bilirubin,[1]; 2.50 mg/kg p.o.,0.89 ± 0.05 mg %
same,ALP percent change,[1]; 5.00 mg/kg p.o.,(32.73) %
same,ALT percent change,[1]; 5.00 mg/kg p.o.,(43.24) %
same,AST percent change,[1]; 5.00 mg/kg p.o.,(42.98) %
same,Bilirubin percent change,[1]; 5.00 mg/kg p.o.,(33.33) %
same,ALP,[1]; 5.00 mg/kg p.o.,59.19 ± 4.45 μmol/min/lt
same,ALT,[1]; 5.00 mg/kg p.o.,828.59 ± 46.56 μmol/min/lt
same,AST,[1]; 5.00 mg/kg p.o.,500.66 ± 49.22 μmol/min/lt
same,Bilirubin,[1]; 5.00 mg/kg p.o.,0.78 ± 0.04 mg %
same,ALP percent change,[1]; 10.00 mg/kg p.o.,(32.15) %
same,ALT percent change,[1]; 10.00 mg/kg p.o.,(38.94) %
same,AST percent change,[1]; 10.00 mg/kg p.o.,(40.50) %
same,Bilirubin percent change,[1]; 10.00 mg/kg p.o.,(35.89) %
same,ALP,[1]; 10.00 mg/kg p.o.,59.70 ± 3.69 μmol/min/lt
same,ALT,[1]; 10.00 mg/kg p.o.,891.36 ± 45.72 μmol/min/lt
same,AST,[1]; 10.00 mg/kg p.o.,522.43 ± 57.50 μmol/min/lt
same,Bilirubin,[1]; 10.00 mg/kg p.o.,0.75 ± 0.04 mg %
